In paper PMC12064818, “A general assay platform to study protein pharmacology using ligand-dependent structural dynamics” (Nature Communications, 2025):

Target: T1, FLuc-C-HiBiT (Photinus pyralis, UniProt P08659)
T1 construct: firefly luciferase with C-terminal HiBiT tag, E. coli expressed
Assay: biochemical
Details: enzyme activity, 10 uM ATP; read-out: IC50 or SDR50 (mM) / FLuc E

T1 sequence (P08659 whole entry, looked up): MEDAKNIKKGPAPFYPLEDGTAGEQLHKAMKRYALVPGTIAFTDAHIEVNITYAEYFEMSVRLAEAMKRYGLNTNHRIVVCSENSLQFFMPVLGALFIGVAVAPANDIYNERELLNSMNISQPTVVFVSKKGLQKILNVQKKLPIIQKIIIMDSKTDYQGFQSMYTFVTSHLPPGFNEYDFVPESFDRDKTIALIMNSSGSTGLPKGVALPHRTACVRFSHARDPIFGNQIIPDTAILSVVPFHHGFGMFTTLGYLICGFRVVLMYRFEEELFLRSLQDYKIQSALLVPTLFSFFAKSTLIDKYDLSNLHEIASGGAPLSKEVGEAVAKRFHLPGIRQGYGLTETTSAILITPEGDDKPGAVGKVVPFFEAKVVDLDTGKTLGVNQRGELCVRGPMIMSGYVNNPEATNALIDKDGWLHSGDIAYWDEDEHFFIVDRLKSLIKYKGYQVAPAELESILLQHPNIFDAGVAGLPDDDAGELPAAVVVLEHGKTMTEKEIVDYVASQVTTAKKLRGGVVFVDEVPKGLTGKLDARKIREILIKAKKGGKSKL

SMILES	IC50 [µM]
COc1ccc(-c2cc(N3CCCC(NC(=O)c4cccs4)C3)[nH]n2)cc1 (centres unmarked) [NCGC00437586-01]	9.89
O=C(Nc1cnc(-c2ccccc2)nc1)C1CCCC1 [NCGC00432867-01]	2.48
O=C(NCCc1c[nH]cn1)c1ccc2nc(-c3ccc(F)cc3)cn2c1 [NCGC00444507-03]	14
COc1cccc(CN2CCNc3cc(Nc4cccnc4)ncc3C2)c1 [NCGC00411206-01]	18
CCN1CCN(C(=O)Cn2c(C)ccc(NC(=O)Nc3ccc(C)cc3)c2=O)CC1 [NCGC00430774-01]	4.95
COCCN1CCOc2nc(-c3cc(F)cc(OC)c3)ncc2C1=O [NCGC00413569-01]	11.4
O=C(c1ccc(CSc2nc3ccncc3n2Cc2ccccc2F)cc1)N1CCCCC1 [NCGC00113496-01]	14
O=C(CSc1ccc(F)cc1)Nc1ccccc1-c1nc2ccccc2s1 [NCGC00274247-01]	> 30
O=C1c2cnc(-c3ccsc3)nc2OCCN1c1ccccc1 [NCGC00413608-01]	18
COc1cccc(OCc2nc3ccccc3n2Cc2ccccc2)c1 [NCGC00116123-01]	> 30
Cc1cccc(NC(=O)c2cc(-c3ccc4c(c3)OCCO4)on2)c1 [NCGC00118828-01]	0.442
Brc1ccc(-c2nc(-c3ccccn3)no2)o1 [NCGC00079657-01]	1.24
C[C@H](C(=O)N(C)CCC#N)C1CC[C@@]2(C)Cc3sc(NC(=O)c4cccn4C)nc3[C@@H](C)[C@@H]2[C@H]1O (some centres unmarked) [NCGC00421252-01]	7
Cn1c(=O)c2ccnn2c2ccc(C(=O)Nc3ccc4c(c3)OCCO4)cc21 [NCGC00470050-01]	9.89
CCOc1ccc(C(=O)Nc2onc3c2CCCC3)cc1 [NCGC00115912-01]	1.97
Cc1ccc2nc(-c3ccc(NC(=O)COc4c(C)ccc(C)c4C)cc3)sc2c1 [NCGC00099580-01]	11.1
OCC1(CC2CC2)CCCN(c2nc(-c3ccccc3)no2)C1 (centres unmarked) [NCGC00440394-01]	> 30
Cn1cc(-c2ccc(Cl)cc2)cc1C(=O)O [NCGC00432667-01]	> 30
CSc1ccc(NC(=O)c2ccc3c(c2)N(C)C2CCCN2C3=O)cc1 (centres unmarked) [NCGC00452166-01]	12.4
CCN1CCN(c2csc3ccc(Cl)cc3c2=O)CC1 [NCGC00132328-01]	12.4
COC1CCOC2(CCN(C(=O)CCCc3ccccc3)CC2)C1 (centres unmarked) [NCGC00452766-01]	15.7
CC(C)C(=O)NC1CCN(Cc2ccc(-c3nc4cccc(Cl)c4s3)cc2)CC1 [NCGC00632240-01]	> 30

SMILES	IC50 [µM]
Oc1cc(-c2nc3ccccc3s2)cc2c1OCCN(Cc1cccn1-c1ccc(Cl)cn1)C2 [NCGC00240283-01]	> 30
Oc1ccc(-c2nc(C3CC3)nc3c2CCN(Cc2cccc(F)c2)CC3)cc1 [NCGC00480349-01]	> 30
COc1cc(C(=O)Nc2cc(C)c(O)c(-c3nc4ccccc4s3)c2)cc(OC)c1OC [NCGC00103336-02]	> 30
COCCN1CCC2(C1)CN(C)c1ccc(C(=O)Nc3ccccc3)cc12 (centres unmarked) [NCGC00419345-01]	1.14
Oc1ccccc1CN1CCNc2cc(-c3ccccc3)ncc2C1 [NCGC00411063-01]	16.1
O=C(O)CCSc1nnc(-c2ccc(Cl)cc2Cl)o1 [NCGC00103142-01]	0.495
COc1ccc(C(=O)NCCn2ccn3nc(-c4ccc(C)cc4C)cc3c2=O)c(C)c1 [NCGC00456977-01]	4.95
Cc1ccc(NC(=O)N2CCCC(c3noc(COc4ccccc4)n3)C2)cc1C (centres unmarked) [NCGC00453299-01]	8.81
COc1ccc(C(=O)NCCn2ccn3nc(-c4ccc(C)cc4C)cc3c2=O)cc1F [NCGC00456968-01]	3.51
Cc1cccc(N2CCN(C(=O)CSCc3ccc(F)cc3)CC2)c1C [NCGC00140140-01]	> 30
Cc1ccc(-c2cc3c(=O)n(CCNC(=O)c4cccc5[nH]ccc45)ccn3n2)cc1C [NCGC00457046-01]	7.85
O=C(NCC1CCCN(C(=O)N2CCCC2)C1)c1ccc(-c2ccccc2)cc1 (centres unmarked) [NCGC00444515-01]	12.4
CSc1ccc(-c2ccc3c(c2)C(=O)N2CC[C@H](NC(=O)c4cccs4)[C@H]2C(=O)N3)cc1 [NCGC00393756-01]	12.4
O=C(NCc1cccc(Cl)c1)C1CCCN(c2nn3cc(-c4ccc(F)cc4)nc3s2)C1 (centres unmarked) [NCGC00123714-01]	8.81
N#Cc1c(-n2ncnc2-c2ccc(Br)cc2)sc2c1CCCCC2 [NCGC00099350-01]	9.89
O=C1CC2(CCN(CC3CC3)CC2)Oc2ccccc21 [NCGC00476832-01]	18
COc1cccc(CC(=O)NCCn2ccn3nc(-c4ccc(C)c(C)c4)cc3c2=O)c1 [NCGC00457016-01]	11.1
COc1cccc(C(=O)Nc2cccc(OCc3cc(=O)n4c5c(sc4n3)CCCC5)c2)c1 [NCGC00111495-01]	9.89
CC(=O)Nc1cccc(C(=O)NCCn2ccn3nc(-c4ccc(C)cc4C)cc3c2=O)c1 [NCGC00456962-01]	9.89
Cc1ccc(NC(=O)N2CCC(CCNC(=O)C3CC3)CC2)cc1F [NCGC00425057-01]	11.1
O=C(O)c1ccc(-c2noc(-c3ccccc3Cl)n2)cc1 [NCGC00168099-01]	1.11
Cc1ccc2oc(C(=O)Nc3cccc(-c4nc5ccccc5s4)c3)c(C)c2c1 [NCGC00119185-01]	9.89

SMILES	IC50 [µM]
CCOC(=O)c1cccc(Nc2nc(-c3ccccc3)no2)c1 [NCGC00422292-01]	6.24
Cc1ccc(C(=O)NC2CC2)cc1-c1ccc2[nH]ncc2c1 [NCGC00242033-03]	> 30
O=C(O)C1CCc2nc(N3CCN(C(=O)C4CCC4)CC3)sc2C1 (centres unmarked) [NCGC00432759-01]	8.81
Cc1ccc2cc(CN3CCN(CC(N)=O)CC3)c(-c3cccs3)nc2c1 [NCGC00436639-01]	12.4
Cc1nc2cc(-c3cccc(F)c3)nn2c(C)c1CCC(=O)NC1CCCCC1 [NCGC00110095-01]	8.81
O=C(COc1ccccc1Cl)Nc1ccc(-c2nc3ccccc3s2)cc1 [NCGC00098726-01]	> 30
COc1cccc(-c2cc(C(=O)NCc3nc(-c4ccccc4)n[nH]3)[nH]n2)c1 [NCGC00437481-01]	11.1
CCCNc1cc(N2CCC(CCC(=O)O)CC2)ncn1 [NCGC00432805-01]	7.85
CCN(CC)c1cc(CCC(=O)O)ccn1 [NCGC00432823-01]	1.4
OC1(CN2CCCN(c3nc4ccccc4s3)CC2)CNCCOC1 (centres unmarked) [NCGC00443145-01]	> 30
Cc1ccc(-c2cc3c(=O)n(CCNC(=O)c4ccc(N(C)C)cc4)ccn3n2)c(C)c1 [NCGC00456986-01]	3.13
Cc1c(NC(=O)C(C)(C)C)cccc1-c1nc2ccccc2s1 [NCGC00118970-01]	5.56
COc1cccc(-c2cc3c(=O)n(CCNC(=O)c4ccccc4Cl)ccn3n2)c1 [NCGC00457089-01]	8.81
COc1ccc2cc(C3CN(C(=O)c4cccc(CO)n4)CCO3)ccc2c1 (centres unmarked) [NCGC00432736-01]	11.1
CCN(c1ncnc2c1cnn2-c1ccc(C)cc1)C1CCCCC1 [NCGC00138994-01]	0.881
Cc1ccn2c(Nc3ccc(C(C)C)cc3)c(-c3cccs3)nc2c1 [NCGC00106676-01]	11.1
COc1ccc(NC(=O)Cn2c(SCc3ccc(C)cc3)nc3cccnc32)cc1OC [NCGC00123978-01]	0.7
Cc1ccc(-c2cc3c(=O)n(CCNC(=O)C4CCCCC4)ccn3n2)c(C)c1 [NCGC00456958-01]	2.48
C[S+](=O)([O-])CCn1ncc2cc(OCc3cccc(-c4ccccc4)c3)ccc21 [NCGC00418095-01]	6.4
Cc1nc2ccc(-c3nc(C4CCOC4)no3)cc2s1 (centres unmarked) [NCGC00446448-01]	11.1
O=C(O)c1cccc(-c2noc(-c3ccccc3F)n2)c1 [PTC124]	0.00154
COc1ccc(Nc2nc(-c3ccccc3F)no2)cc1OC [NCGC00422302-01]	3.51

SMILES	IC50 [µM]
OCc1cccc(-c2cc3c(cn2)CN(Cc2ccccc2)CCN3)c1 [NCGC00411045-01]	18
COc1cc(OC)cc(C(=O)Nc2cc(-c3nc4ccccc4s3)ccc2OC)c1 [NCGC00102359-01]	> 30
Cc1nc(CN2CCOc3c(O)cc(-c4nc5ccccc5s4)cc3C2)no1 [NCGC00430265-01]	> 30
Cc1c(CCNC(=O)c2ccc(Br)o2)sc2nc(-c3ccc(Cl)cc3)nn12 [NCGC00137117-01]	12.4
Cc1ccc2oc([C@H]3CCN(Cc4cccs4)C3)nc2c1 [NCGC00397825-01]	18
COc1ccc(CN(C(=O)c2cc3ccccc3oc2=O)C2CC[S+](=O)([O-])C2)cc1OC (centres unmarked) [NCGC00100996-01]	> 30
Cc1oc(C(O)c2ccccc2F)nc1C(=O)Nc1ccc(N2CCOCC2)cc1 (centres unmarked) [NCGC00417991-01]	16.1
OCc1ccnc(-c2ccc(-c3ccn[nH]3)cc2)c1 [NCGC00444969-01]	9.89
CC(Cn1cccn1)Nc1ccc(-c2nc(-c3ccccc3F)no2)cn1 (centres unmarked) [NCGC00427483-01]	9.89
O=C(O)c1ccnc(-c2ccnc(NCCN3CCCCC3=O)n2)c1 [NCGC00438481-01]	11.1
COc1cccc(C(=O)Nc2ccc(-c3nc4ccc(C)cc4s3)cc2)c1OC [NCGC00134693-01]	> 30
CCCc1noc(-c2nc(-c3ccccc3F)no2)n1 [NCGC00450039-01]	9.89
COc1ccccc1-c1nc2cc(NC(=O)c3ccccc3Cl)ccc2o1 [NCGC00098320-01]	11.1
CC(=O)c1ccc(N[S+](=O)([O-])c2cccc([S+](=O)([O-])c3ccc(Cl)cc3)c2)cc1 [NCGC00098154-01]	> 30
CN1CCNc2cc(Nc3ccc(F)cc3)ncc2C1 [NCGC00411261-01]	20.2
CCN(CC1CCOCC1)C(=O)c1cccnc1SC/C=C/c1ccccc1 [NCGC00433298-01]	12.4
CC(=O)Oc1ccccc1C(=O)Nc1ccc(-c2nc3ccc(C)cc3s2)cc1 [NCGC00596510-01]	8.81
COc1cc(C(=O)NC2CCCN(c3cc(-c4ccc(F)cc4)n[nH]3)C2)cc(OC)c1OC (centres unmarked) [NCGC00437480-01]	11.1
O=C(NCCC1CCCCC1)c1c[nH]c2ncccc12 [NCGC00480521-01]	18
CC(C)(C)CC(=O)N1C[C@@H]2C[C@H](C1)c1ccc(NC(=O)Nc3cccc(F)c3)c(=O)n1C2 [NCGC00395227-01]	> 30
